Assay results taken from PubChem BioAssay (NCI).
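Assay format: 96-well plates, 48-hour exposure. GI50: concentration for 50% inhibition of growth. TGI marks complete inhibition of growth.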

Legend:
Assay in all cases: NCI-60 cell line screen, 48 h
SW-620 colon = system: SW-620 colon
HOP-62 NSCLC = system: HOP-62 NSCLC
IGROV1 ovarian = system: IGROV1 ovarian
HT29 colon = system: HT29 colon
SNB-75 CNS = system: SNB-75 CNS
M14 melanoma = system: M14 melanoma
SK-MEL-28 melanoma = system: SK-MEL-28 melanoma
LOX IMVI melanoma = system: LOX IMVI melanoma
EKVX NSCLC = system: EKVX NSCLC
ACHN renal = system: ACHN renal
HCC-2998 colon = system: HCC-2998 colon
CCRF-CEM leukemia = system: CCRF-CEM leukemia
NCI-H23 lung = system: NCI-H23 lung
MDA-MB-231 breast = system: MDA-MB-231 breast
SK-OV-3 ovarian = system: SK-OV-3 ovarian
T-47D breast = system: T-47D breast
RXF 393 renal = system: RXF 393 renal
RPMI-8226 leukemia = system: RPMI-8226 leukemia
SF-295 CNS = system: SF-295 CNS
786-0 renal = system: 786-0 renal
BT-549 breast = system: BT-549 breast
OVCAR-8 ovarian = system: OVCAR-8 ovarian
SF-539 CNS = system: SF-539 CNS
NCI-H522 lung = system: NCI-H522 lung
A549 NSCLC = system: A549 NSCLC
MDA-MB-468 breast = system: MDA-MB-468 breast
UACC-257 melanoma = system: UACC-257 melanoma
OVCAR-5 ovarian = system: OVCAR-5 ovarian
UO-31 renal = system: UO-31 renal
COLO 205 colon = system: COLO 205 colon
NCI/ADR-RES ovarian = system: NCI/ADR-RES ovarian
K-562 leukemia = system: K-562 leukemia
HL-60(TB) leukemia = system: HL-60(TB) leukemia
SN12C renal = system: SN12C renal
HS 578T breast = system: HS 578T breast
SK-MEL-2 melanoma = system: SK-MEL-2 melanoma
UACC-62 melanoma = system: UACC-62 melanoma
NCI-H226 lung = system: NCI-H226 lung
HCT-116 colon = system: HCT-116 colon
CAKI-1 renal = system: CAKI-1 renal
MCF7 breast = system: MCF7 breast
SNB-19 CNS = system: SNB-19 CNS
OVCAR-4 ovarian = system: OVCAR-4 ovarian
MOLT-4 leukemia = system: MOLT-4 leukemia
A498 renal = system: A498 renal
PC-3 prostate = system: PC-3 prostate
KM12 colon = system: KM12 colon
MDA-MB-435 = system: MDA-MB-435
OVCAR-3 ovarian = system: OVCAR-3 ovarian
SR leukemia = system: SR leukemia
SK-MEL-5 melanoma = system: SK-MEL-5 melanoma
NCI-H460 lung = system: NCI-H460 lung
MALME-3M melanoma = system: MALME-3M melanoma
U251 CNS = system: U251 CNS
TK-10 renal = system: TK-10 renal
SF-268 CNS = system: SF-268 CNS
HOP-92 NSCLC = system: HOP-92 NSCLC
HCT-15 colon = system: HCT-15 colon
DU-145 prostate = system: DU-145 prostate

Compound `O=C(/C=C/Nc1ccc(Cl)cc1)c1ccc2c(c1)Nc1ccccc1S2` has a GI50 (SW-620 colon) of 10.2 µM, a TGI (SW-620 colon) of 24.7 µM and a GI50 (HOP-62 NSCLC) of 4.15 µM. It also gave a TGI (HOP-62 NSCLC) of 17.1 µM, a GI50 (IGROV1 ovarian) of 13.2 µM and a TGI (IGROV1 ovarian) of 34.6 µM. For the same compound, the GI50 (HT29 colon) was 13.1 µM, the TGI (HT29 colon) was 32 µM and the GI50 (SNB-75 CNS) was 1.96 µM. The TGI (SNB-75 CNS) was 6.85 µM, the GI50 (M14 melanoma) was 14.6 µM and the TGI (M14 melanoma) was 40.2 µM. It also gave a GI50 (SK-MEL-28 melanoma) of 24 µM, a TGI (SK-MEL-28 melanoma) of 79.1 µM and a GI50 (LOX IMVI melanoma) of 10.1 µM. For the same compound, the TGI (LOX IMVI melanoma) was 23.7 µM, the GI50 (EKVX NSCLC) was 14.6 µM and the TGI (EKVX NSCLC) was 36.8 µM. The GI50 (ACHN renal) was 11 µM, the TGI (ACHN renal) was 27.8 µM and the GI50 (HCC-2998 colon) was 13.2 µM. The TGI (HCC-2998 colon) was 36.8 µM, the GI50 (CCRF-CEM leukemia) was 16.9 µM and the TGI (CCRF-CEM leukemia) was 69.2 µM. For the same compound, the GI50 (NCI-H23 lung) was 5.34 µM, the TGI (NCI-H23 lung) was 20.4 µM and the GI50 (MDA-MB-231 breast) was 13.3 µM. The TGI (MDA-MB-231 breast) was 27.9 µM, the GI50 (SK-OV-3 ovarian) was 12.9 µM and the TGI (SK-OV-3 ovarian) was 29.5 µM. For the same compound, the GI50 (T-47D breast) was 12.9 µM, the TGI (T-47D breast) was 56.4 µM and the GI50 (RXF 393 renal) was 14.4 µM. For the same compound, the TGI (RXF 393 renal) was 30.5 µM, the GI50 (RPMI-8226 leukemia) was 17.7 µM and the TGI (RPMI-8226 leukemia) was greater than 100 µM. The GI50 (SF-295 CNS) was 4.19 µM, the TGI (SF-295 CNS) was 17.1 µM and the GI50 (786-0 renal) was 11 µM. The TGI (786-0 renal) was 23.3 µM, the GI50 (BT-549 breast) was 9.67 µM and the TGI (BT-549 breast) was 33.8 µM. It also gave a GI50 (OVCAR-8 ovarian) of 4.38 µM, a TGI (OVCAR-8 ovarian) of 17.8 µM and a GI50 (SF-539 CNS) of 8.84 µM. For the same compound, the TGI (SF-539 CNS) was 21.5 µM, the GI50 (NCI-H522 lung) was 5.1 µM and the TGI (NCI-H522 lung) was 23.9 µM. For the same compound, the GI50 (A549 NSCLC) was 6.43 µM, the TGI (A549 NSCLC) was 23.9 µM and the GI50 (MDA-MB-468 breast) was 3.44 µM. The TGI (MDA-MB-468 breast) was 14.1 µM, the GI50 (UACC-257 melanoma) was 18.7 µM and the TGI (UACC-257 melanoma) was 59.9 µM. The GI50 (OVCAR-5 ovarian) was 15.9 µM, the TGI (OVCAR-5 ovarian) was 68.2 µM and the GI50 (UO-31 renal) was 16.9 µM. The TGI (UO-31 renal) was 34.3 µM, the GI50 (COLO 205 colon) was 11.9 µM and the TGI (COLO 205 colon) was 28.6 µM. It also gave a GI50 (NCI/ADR-RES ovarian) of 5.71 µM, a TGI (NCI/ADR-RES ovarian) of 20.1 µM and a GI50 (K-562 leukemia) of 18.5 µM. For the same compound, the TGI (K-562 leukemia) was greater than 100 µM, the GI50 (HL-60(TB) leukemia) was 69.8 µM and the TGI (HL-60(TB) leukemia) was greater than 100 µM. The GI50 (SN12C renal) was 13.7 µM, the TGI (SN12C renal) was 66.5 µM and the GI50 (HS 578T breast) was 3.42 µM. The TGI (HS 578T breast) was 19 µM, the GI50 (SK-MEL-2 melanoma) was 13.6 µM and the TGI (SK-MEL-2 melanoma) was 32.8 µM. For the same compound, the GI50 (UACC-62 melanoma) was 10.2 µM, the TGI (UACC-62 melanoma) was 25.7 µM and the GI50 (NCI-H226 lung) was 11.6 µM. For the same compound, the TGI (NCI-H226 lung) was 37 µM, the GI50 (HCT-116 colon) was 10.3 µM and the TGI (HCT-116 colon) was 29.9 µM. It also gave a GI50 (CAKI-1 renal) of 10.1 µM, a TGI (CAKI-1 renal) of 24.6 µM and a GI50 (MCF7 breast) of 6.64 µM. The TGI (MCF7 breast) was 23.9 µM, the GI50 (SNB-19 CNS) was 12.2 µM and the TGI (SNB-19 CNS) was 29.3 µM. The GI50 (OVCAR-4 ovarian) was 2.84 µM, the TGI (OVCAR-4 ovarian) was 10.4 µM and the GI50 (MOLT-4 leukemia) was 17.6 µM. For the same compound, the TGI (MOLT-4 leukemia) was greater than 100 µM, the GI50 (A498 renal) was 18.4 µM and the TGI (A498 renal) was 42.5 µM. It also gave a GI50 (PC-3 prostate) of 7.55 µM, a TGI (PC-3 prostate) of 25.1 µM and a GI50 (KM12 colon) of 14.6 µM. For the same compound, the TGI (KM12 colon) was 55.2 µM, the GI50 (MDA-MB-435) was 11.3 µM and the TGI (MDA-MB-435) was 39.4 µM. For the same compound, the GI50 (OVCAR-3 ovarian) was 11.4 µM, the TGI (OVCAR-3 ovarian) was 30.5 µM and the GI50 (SR leukemia) was 21.2 µM. The TGI (SR leukemia) was greater than 100 µM, the GI50 (SK-MEL-5 melanoma) was 12.4 µM and the TGI (SK-MEL-5 melanoma) was 28.4 µM. The GI50 (NCI-H460 lung) was 3.77 µM, the TGI (NCI-H460 lung) was 14.7 µM and the GI50 (MALME-3M melanoma) was 11.4 µM. For the same compound, the TGI (MALME-3M melanoma) was 24.7 µM, the GI50 (U251 CNS) was 6.88 µM and the TGI (U251 CNS) was 21.3 µM. The GI50 (TK-10 renal) was 13.3 µM, the TGI (TK-10 renal) was 28.8 µM and the GI50 (SF-268 CNS) was 6.05 µM. For the same compound, the TGI (SF-268 CNS) was 25.1 µM, the GI50 (HOP-92 NSCLC) was 12.6 µM and the TGI (HOP-92 NSCLC) was 29.9 µM. The GI50 (HCT-15 colon) was 14.9 µM, the TGI (HCT-15 colon) was greater than 100 µM and the GI50 (DU-145 prostate) was 8.43 µM. For the same compound, the TGI (DU-145 prostate) was 27.7 µM.
